# According to ChEMBL document CHEMBL4190267, “Discovery of potent molecular chimera (CM358) to treat human metastatic melanoma” (Eur J Med Chem, 2017):
# The source made the active and inactive calls. No cut-off for these calls is given here.
# Legend:
# [1] = tested on: WM 266-4; assay: Growth inhibition of human WM266.4 cells at 25 uM after 24 hrs by XTT assay; format: functional, cell-based
# [2] = tested on: PC-3; assay: Growth inhibition of human PC3 cells up to 25 uM measured after 24 hrs by XTT assay; format: functional, cell-based
# [3] = tested on: MDA-MB-231; assay: Growth inhibition of human MDA-MB-231 cells up to 25 uM measured after 24 hrs by XTT assay; format: functional, cell-based
# [4] = tested on: WM 266-4; assay: Growth inhibition of human WM266.4 cells up to 25 uM measured after 24 hrs by XTT assay; format: functional, cell-based
# [5] = tested on: A 172; assay: Growth inhibition of human A172 cells up to 25 uM measured after 24 hrs by XTT assay; format: functional, cell-based
# [6] = tested on: NCI-H1299; assay: Growth inhibition of human NCI-H1299 cells up to 25 uM measured after 24 hrs by XTT assay; format: functional, cell-based
# [7] = tested on: WM 266-4; assay: Growth inhibition of human WM266.4 cells up to 25 uM measured up to 96 hrs by XTT assay; format: functional, cell-based
# [8] = tested on: PC-3; assay: Growth inhibition of human PC3 cells preincubated for 6 hrs followed compound washout measured after 24 hrs by XTT assay; format: functional
# [9] = tested on: MDA-MB-231; assay: Growth inhibition of human MDA-MB-231 cells preincubated for 6 hrs followed compound washout measured after 24 hrs by XTT assay; format: functional
# [10] = tested on: WM 266-4; assay: Growth inhibition of human WM266.4 cells preincubated for 6 hrs followed compound washout measured after 24 hrs by XTT assay; format: functional
# [11] = tested on: A 172; assay: Growth inhibition of human A172 cells preincubated for 6 hrs followed compound washout measured after 24 hrs by XTT assay; format: functional
# [12] = tested on: NCI-H1299; assay: Growth inhibition of human NCI-H1299 cells preincubated for 6 hrs followed compound washout measured after 24 hrs by XTT assay; format: functional
# [13] = tested on: PC-3; assay: Growth inhibition of human PC3 cells preincubated for 6 hrs cotreated with chlorambucil followed compound washout measured after 24 hrs by XTT assay; format: functional
# [14] = tested on: MDA-MB-231; assay: Growth inhibition of human MDA-MB-231 cells preincubated for 6 hrs cotreated with chlorambucil followed compound washout measured after 24 hrs by XTT assay; format: functional
# [15] = tested on: WM 266-4; assay: Growth inhibition of human WM266.4 cells preincubated for 6 hrs cotreated with chlorambucil followed compound washout measured after 24 hrs by XTT assay; format: functional
# [16] = tested on: A 172; assay: Growth inhibition of human A172 cells preincubated for 6 hrs cotreated with chlorambucil followed compound washout measured after 24 hrs by XTT assay; format: functional
# [17] = tested on: NCI-H1299; assay: Growth inhibition of human NCI-H1299 cells preincubated for 6 hrs cotreated with chlorambucil followed compound washout measured after 24 hrs by XTT assay; format: functional
# [18] = tested on: WM 266-4; assay: Cell cycle arrest in human WM266.4 cells assessed as accumulation at G1 phase at 10 uM cotreated with chlorambucil after 2 hrs by propidium iodide staining based flow cytometry (reference value: 59%); format: functional
# [19] = tested on: WM 266-4; assay: Cell cycle arrest in human WM266.4 cells assessed as accumulation at S phase at 10 uM cotreated with chlorambucil after 2 hrs by propidium iodide staining based flow cytometry (reference value: 27%); format: functional
# [20] = tested on: WM 266-4; assay: Cell cycle arrest in human WM266.4 cells assessed as accumulation at G2 phase at 10 uM cotreated with chlorambucil after 2 hrs by propidium iodide staining based flow cytometry (reference value: 11%); format: functional
# [21] = tested on: WM 266-4; assay: Cell cycle arrest in human WM266.4 cells assessed as accumulation at G1 phase at 10 uM cotreated with chlorambucil after 8 hrs by propidium iodide staining based flow cytometry (reference value: 59%); format: functional
# [22] = tested on: WM 266-4; assay: Cell cycle arrest in human WM266.4 cells assessed as accumulation at S phase at 10 uM cotreated with chlorambucil after 8 hrs by propidium iodide staining based flow cytometry (reference value: 27%); format: functional
# [23] = tested on: WM 266-4; assay: Cell cycle arrest in human WM266.4 cells assessed as accumulation at G2 phase at 10 uM cotreated with chlorambucil after 8 hrs by propidium iodide staining based flow cytometry (reference value: 11%); format: functional
# [24] = tested on: WM 266-4; assay: Cell cycle arrest in human WM266.4 cells assessed as accumulation at G1 phase at 10 uM cotreated with chlorambucil after 24 hrs by propidium iodide staining based flow cytometry (reference value: 59%); format: functional
# [25] = tested on: WM 266-4; assay: Cell cycle arrest in human WM266.4 cells assessed as accumulation at S phase at 10 uM cotreated with chlorambucil after 24 hrs by propidium iodide staining based flow cytometry (reference value: 27%); format: functional
# [26] = tested on: WM 266-4; assay: Cell cycle arrest in human WM266.4 cells assessed as accumulation at G2 phase at 10 uM cotreated with chlorambucil after 24 hrs by propidium iodide staining based flow cytometry (reference value: 11%); format: functional
# [27] = molecular target: DNA topoisomerase 2-alpha (Homo sapiens) (UniProt P11388); assay: Inhibition of human topoisomerase-2alpha assessed as reduction in enzyme-mediated decatenation at 100 uM using kinetoplast DNA as substrate after 25 mins by ethidium bromide staining based agarose gel electrophoresis method
# [28] = molecular target: DNA topoisomerase 2-alpha (Homo sapiens) (UniProt P11388); assay: Inhibition of human topoisomerase-2alpha assessed as reduction in enzyme-mediated decatenation at 25 uM using kinetoplast DNA as substrate after 25 mins by ethidium bromide staining based agarose gel electrophoresis method
# [29] = tested on: WM 266-4; assay: (§1) Antitumor activity against human WM266.4 cells xenografted in athymic Foxn1 nu mouse assessed as tumor growth inhibition at 10 mg/kg, ip cotreated with chlorambucil administered once daily for 7 days followed by resting period of 2 days repeated for 4 weeks starting from 5 days post tumor inoculation; format: functional, organism-based
# [30] = tested on: WM 266-4; assay: as §1, with “for 3” for “for 7”, “of 4” for “of 2”; format: functional, organism-based
# [31] = tested on: Mus musculus; assay: Toxicity in athymic Foxn1 nu mouse xenografted with human WM266.4 cells assessed as body weight loss at 10 mg/kg, ip cotreated with chlorambucil administered once daily for 7 days followed by resting period of 2 days repeated for 4 weeks starting from 5 days post tumor inoculation; format: organism-based; details: in vivo
# [32] = tested on: Mus musculus; assay: Toxicity in athymic Foxn1 nu mouse xenografted with human WM266.4 cells assessed as body weight loss at 10 mg/kg, ip cotreated with chlorambucil administered once daily for 3 days followed by resting period of 4 days repeated for 4 weeks starting from 5 days post tumor inoculation; format: organism-based; details: in vivo
# DNA topoisomerase 2-alpha (Homo sapiens), sequence (P11388 whole entry): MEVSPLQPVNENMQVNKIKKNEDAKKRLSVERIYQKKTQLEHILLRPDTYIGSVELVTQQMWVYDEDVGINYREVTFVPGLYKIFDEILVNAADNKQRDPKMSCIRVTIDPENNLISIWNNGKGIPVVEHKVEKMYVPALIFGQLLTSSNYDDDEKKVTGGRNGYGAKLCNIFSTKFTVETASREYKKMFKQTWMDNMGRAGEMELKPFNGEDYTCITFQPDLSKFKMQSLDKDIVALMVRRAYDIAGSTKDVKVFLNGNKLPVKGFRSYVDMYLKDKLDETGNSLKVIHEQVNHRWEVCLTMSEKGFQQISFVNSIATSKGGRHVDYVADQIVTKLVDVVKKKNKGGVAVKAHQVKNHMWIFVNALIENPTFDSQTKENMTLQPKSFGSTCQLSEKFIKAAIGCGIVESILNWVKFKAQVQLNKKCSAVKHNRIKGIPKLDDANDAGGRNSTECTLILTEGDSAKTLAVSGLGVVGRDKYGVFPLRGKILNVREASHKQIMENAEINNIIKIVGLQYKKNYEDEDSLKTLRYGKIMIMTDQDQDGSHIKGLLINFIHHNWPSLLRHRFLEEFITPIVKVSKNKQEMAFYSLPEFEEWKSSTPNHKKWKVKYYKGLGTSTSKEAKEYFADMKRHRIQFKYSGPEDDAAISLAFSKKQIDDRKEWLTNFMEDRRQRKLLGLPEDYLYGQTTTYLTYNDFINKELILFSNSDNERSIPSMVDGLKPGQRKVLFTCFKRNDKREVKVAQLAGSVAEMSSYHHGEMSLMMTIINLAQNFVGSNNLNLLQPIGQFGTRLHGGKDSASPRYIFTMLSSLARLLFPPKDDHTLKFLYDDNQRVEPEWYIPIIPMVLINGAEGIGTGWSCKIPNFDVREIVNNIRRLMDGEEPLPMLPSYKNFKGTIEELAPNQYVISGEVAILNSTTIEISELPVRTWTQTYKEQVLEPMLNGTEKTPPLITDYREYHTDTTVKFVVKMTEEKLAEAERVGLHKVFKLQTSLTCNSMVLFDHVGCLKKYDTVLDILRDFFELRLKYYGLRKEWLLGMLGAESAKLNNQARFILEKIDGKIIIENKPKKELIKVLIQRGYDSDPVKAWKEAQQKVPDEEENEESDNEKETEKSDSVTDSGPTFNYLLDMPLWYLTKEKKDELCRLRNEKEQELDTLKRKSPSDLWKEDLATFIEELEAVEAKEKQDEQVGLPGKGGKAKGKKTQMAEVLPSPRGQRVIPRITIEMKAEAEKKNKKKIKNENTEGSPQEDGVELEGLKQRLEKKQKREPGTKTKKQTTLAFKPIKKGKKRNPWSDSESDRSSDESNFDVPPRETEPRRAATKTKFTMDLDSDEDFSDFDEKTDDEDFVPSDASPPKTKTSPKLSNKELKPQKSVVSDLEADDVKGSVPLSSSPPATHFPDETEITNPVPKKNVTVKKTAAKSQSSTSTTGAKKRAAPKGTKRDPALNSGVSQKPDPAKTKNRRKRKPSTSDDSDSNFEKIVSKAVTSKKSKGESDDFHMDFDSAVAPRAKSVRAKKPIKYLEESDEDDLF
smiles,measurement,setting,value
CC(=O)Nc1cc2c3c(cccc3c1)C(=O)N(CCN(C)C)C2=O,growth inhibition (GI),[1],inactive
CC[C@@]1(OC(=O)N[C@H]2CCc3cc(OC)c(OC)c(OC)c3-c3ccc(OC)c(=O)cc32)C(=O)OCc2c1cc1n(c2=O)Cc2cc3ccccc3nc2-1,growth inhibition (GI),[2],inactive
same,growth inhibition (GI),[3],inactive
same,growth inhibition (GI),[4],inactive
same,growth inhibition (GI),[5],inactive
same,growth inhibition (GI),[6],inactive
same,growth inhibition (GI),[7],inactive
O=C(CCCc1ccc(N(CCCl)CCCl)cc1)Nc1ccn([C@@H]2O[C@H](CO)[C@@H](O)[C@@H]2O)c(=O)n1,growth inhibition (GI),[8],inactive
same,growth inhibition (GI),[9],inactive
same,growth inhibition (GI),[10],inactive
same,growth inhibition (GI),[11],inactive
same,growth inhibition (GI),[12],inactive
CN(C)CCN1C(=O)c2cccc3cc(N)cc(c23)C1=O [AMONAFIDE],GI50,[8],> 25 µM
same,GI50,[13],> 25 µM
same,GI50,[9],> 25 µM
same,GI50,[14],> 25 µM
same,GI50,[10],> 25 µM
same,GI50,[15],> 25 µM
same,GI50,[11],> 25 µM
same,GI50,[16],> 25 µM
same,GI50,[12],> 25 µM
same,GI50,[17],> 25 µM
same,Activity,[18],63.5%
same,Activity,[19],26%
same,Activity,[20],9.8%
same,Activity,[21],29%
same,Activity,[22],44.7%
same,Activity,[23],23%
same,Activity,[24],35%
same,Activity,[25],39%
same,Activity,[26],26%
same,inhibition,[27],Active
same,inhibition,[28],inactive
same,TGI,[29],inactive
same,TGI,[30],inactive
same,Activity,[31],Toxic
same,Activity,[32],Toxic
